# In publication PMC10976173, “Synthesis of 5-Benzylamino and 5-Alkylamino-Substituted Pyrimido[4,5-c]quinoline Derivatives as CSNK2A Inhibitors with Antiviral Activity” (Pharmaceuticals, 2024):
# Experiments:
# [1] = biological target: T1, CSNK2A (CSNK2A2-NLuc) (Homo sapiens, UniProt P19784); experiment: In-cell CSNK2A target engagement by NanoBRET assay; type: cell-based; details: for IC50: In-cell target engagement by NanoBRET assay, HEK293 cells; for fold decrease in CSNK2A potency: compared to the parent compounds (4s and 4w); for Designation: active / inactive analogs with 10-fold differences in IC50; for fold increase in CSNK2A potency: compared to 4q
# T1 construct: expressed in transfected cells; host or cells: HEK293
# Procedure: A transfection complex of DNA at 10 µg/mL was created, consisting of 9 µg/mL of carrier DNA (Promega, Madison, WI, USA) and 1 µg/mL of CSNK2A2-NLuc fusion DNA in Opti-MEM without serum (Gibco). FuGENE HD (Promega) was added at 30 µL/mL to form a lipid/DNA complex. The solution was then mixed and incubated at room temperature for 20 min. […] The following day, the media was removed via aspiration and replaced with 85 μL of Opti-MEM without phenol red. A total of 5 μL per well of 20×-NanoBRET Tracer K10 (Promega) at 5 μM in Tracer Dilution Buffer (Promega N291B) was added to all wells, except the “no tracer” control wells. Test compounds (10 mM in DMSO) were diluted 100× in Opti-MEM media to prepare stock solutions and evaluated at eleven concentrations. A total of 10 μL per well of the 10-fold test compound stock solutions (final assay concentration of 0.1% DMSO) was added. […] 96-well plates containing cells with NanoBRET Tracer K10 and test compounds (100 µL total volume per well) were equilibrated (37 °C/5% CO2) for 2 h. The plates were cooled to room temperature for 15 min. […] A total of 50 μL of the 3× substrate/extracellular NL inhibitor were added to each well. The plates were read within 30 min on a GloMax Discover luminometer (Promega) equipped with 450 nm BP filter (donor) and 600 nm LP filter (acceptor) using 0.3 s integration time. Raw milliBRET (mBRET) values were obtained by dividing the acceptor emission values (600 nm) by the donor emission values (450 nm) and multiplying by 1000. […] The data were first normalized and then fit using Sigmoidal, 4PL binding curve in GraphPad Prism version 9.5.1 to determine IC50 values (Figure S1).
# [2] = Kinetic solubility in PBS pH 7.4; type: physicochemical; details: phosphate-buffered saline, pH 7.4, aqueous buffer, kinetic from dmso stock, PBS pH 7.4, 24 h
# Procedure: Kinetic solubility assay was conducted using 10 mM DMSO stocks of compounds in phosphate-buffered saline solution (PBS) at pH 7.4 by Analiza, Inc., Cleveland, OH, USA. […] The calculated values were corrected for the background nitrogen in the media and DMSO.
# [3] = tested on: Mouse Hepatitis Virus (MHV); experiment: microbe, parasite or virus in culture; type: cell-based; details: Murine coronavirus; Inhibition of MHV-NLuc in DBT cells; read-out: MHV IC50
# Procedure: DBT cells were plated in 96-well plates to be 80% confluent at the start of the assay. Test compounds were diluted to 30 µM in DMEM. […] Molnupiravir (10 µM) was included as a positive control. […] After 1 h, MHV-NLuc was added at an MOI of 0.1 in 50 μL DMEM so that the final concentration of the first dilution of compound was 30 μM (T = 0). After 10 h, the media was aspirated, and the cells were washed with PBS and lysed with passive lysis buffer (Promega) for 20 min at room temperature. Relative light units (RLUs) were measured using a luminometer (Promega; GloMax). Triplicate data were analyzed in GraphPad Prism version 9.5.1 to generate IC50 values (Figure S2).
# T1 sequence (P19784 whole entry): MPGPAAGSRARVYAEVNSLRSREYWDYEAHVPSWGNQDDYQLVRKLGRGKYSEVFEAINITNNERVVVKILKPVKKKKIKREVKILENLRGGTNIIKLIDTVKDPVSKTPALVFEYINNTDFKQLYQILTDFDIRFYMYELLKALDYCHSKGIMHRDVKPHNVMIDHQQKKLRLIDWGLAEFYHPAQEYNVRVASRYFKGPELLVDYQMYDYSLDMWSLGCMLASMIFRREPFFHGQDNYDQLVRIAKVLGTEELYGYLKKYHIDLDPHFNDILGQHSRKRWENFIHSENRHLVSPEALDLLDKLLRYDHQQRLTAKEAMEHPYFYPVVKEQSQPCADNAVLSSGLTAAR
structure (smiles),measurement,setting,value
"O=C(O)c1ccc2c(c1)nc(NCC1CCOC1)c1ncncc12 (stereo not drawn) [Compound 4y, 5-(((tetrahydrofuran-3-yl)methyl)amino)pyrimido[4,5-c]quinoline-8-carboxylic acid]",IC50,[1],3.1 µM
same,fold decrease in CSNK2A potency,[1],10 fold
same,solubility at 24 h,[2],140 µM
same,melting point,,160 to 164 °C
"O=C(O)c1ccc2c(c1)nc(NCc1cccc(Cl)c1)c1ncncc12 [Compound 4b, 5-((3-chlorobenzyl)amino)pyrimido[4,5-c]quinoline-8-carboxylic acid]",IC50,[1],0.37 µM
same,solubility at 24 h,[2],150 µM
same,melting point,,240 to 243 °C
"O=C(O)c1ccc2c(c1)nc(NCc1ccc3ccccc3c1)c1ncncc12 [Compound 4m, 5-((naphthalen-2-ylmethyl)amino)pyrimido[4,5-c]quinoline-8-carboxylic acid]",IC50,[1],0.5 µM
same,solubility at 24 h,[2],5 µM
same,melting point,,250 to 253 °C
"O=C(O)c1ccc2c(c1)nc(NCC1CCC(F)(F)CC1)c1ncncc12 [Compound 4aa, 5-(((4,4-difluorocyclohexyl)methyl)amino)pyrimido[4,5-c]quinoline-8-carboxylic acid]",IC50,[1],0.19 µM
same,solubility at 24 h,[2],180 µM
same,IC50,[3],10 µM
same,melting point,,288 to 291 °C
"O=C(O)c1ccc2c(c1)nc(NCC13CCC(CC1)C3)c1ncncc12 [Compound 4w, 5-((bicyclo[2.2.1]heptan-1-ylmethyl)amino)pyrimido[4,5-c]quinoline-8-carboxylic acid]",IC50,[1],0.17 µM
same,solubility at 24 h,[2],190 µM
same,IC50,[3],17 µM
same,melting point,,291 to 292 °C
"COc1ccccc1CNc1nc2cc(C(=O)O)ccc2c2cncnc12 [Compound 4d, 5-((2-methoxybenzyl)amino)pyrimido[4,5-c]quinoline-8-carboxylic acid]",IC50,[1],1 µM
same,solubility at 24 h,[2],140 µM
same,melting point,,230 to 233 °C
"CC(Nc1nc2cc(C(=O)O)ccc2c2cncnc12)c1ccccc1 (stereo not drawn) [Compound 4ae, 5-((1-phenylethyl)amino)pyrimido[4,5-c]quinoline-8-carboxylic acid]",IC50,[1],1.9 µM
same,Designation,[1],Inactive
same,solubility at 24 h,[2],180 µM
same,melting point,,228 to 232 °C
"CN(Cc1ccccc1)c1nc2cc(C(=O)O)ccc2c2cncnc12 [Compound 4ac, 5-(benzyl(methyl)amino)pyrimido[4,5-c]quinoline-8-carboxylic acid]",IC50,[1],0.25 µM
same,Designation,[1],Active
same,solubility at 24 h,[2],180 µM
same,melting point,,200 to 204 °C
"O=C(O)c1ccc2c(c1)nc(NCc1ccc(Cl)cc1)c1ncncc12 [Compound 4c, 5-((4-chlorobenzyl)amino)pyrimido[4,5-c]quinoline-8-carboxylic acid]",IC50,[1],0.13 µM
same,solubility at 24 h,[2],160 µM
same,IC50,[3],13 µM
same,melting point,,203 to 205 °C
"O=C(O)c1ccc2c(c1)nc(NCc1ccc(C(F)(F)F)cc1)c1ncncc12 [Compound 4j, 5-((4-(trifluoromethyl)benzyl)amino)pyrimido[4,5-c]quinoline-8-carboxylic acid]",IC50,[1],0.64 µM
same,solubility at 24 h,[2],160 µM
same,melting point,,245 to 248 °C
"O=C(O)c1ccc2c(c1)nc(NCc1ccccn1)c1ncncc12 [Compound 4n, 5-((pyridin-2-ylmethyl)amino)pyrimido[4,5-c]quinoline-8-carboxylic acid]",IC50,[1],8 µM
same,solubility at 24 h,[2],140 µM
same,melting point,,250 to 254 °C
"CC(C)(C)CNc1nc2cc(C(=O)O)ccc2c2cncnc12 [Compound 4v, 5-(neopentylamino)pyrimido[4,5-c]quinoline-8-carboxylic acid]",IC50,[1],0.87 µM
same,solubility at 24 h,[2],190 µM
same,melting point,,282 to 285 °C
"O=C(O)c1ccc2c(c1)nc(NC1CCc3ccccc31)c1ncncc12 (stereo not drawn) [Compound 4af, 5-((2,3-dihydro-1H-inden-1-yl)amino)pyrimido[4,5-c]quinoline-8-carboxylic acid]",IC50,[1],0.23 µM
same,Designation,[1],Active
same,solubility at 24 h,[2],160 µM
same,IC50,[3],22 µM
same,melting point,,270 to 273 °C
"O=C(O)c1ccc2c(c1)nc(N[C@H]1CCc3ccccc31)c1ncncc12 [Compound 4ag, (S)-5-((2,3-dihydro-1H-inden-1-yl)amino)pyrimido[4,5-c]quinoline-8-carboxylic acid]",IC50,[1],0.3 µM
same,melting point,,252 to 255 °C
"O=C(O)c1ccc2c(c1)nc(NCc1ccncc1)c1ncncc12 [Compound 4p, 5-((pyridin-4-ylmethyl)amino)pyrimido[4,5-c]quinoline-8-carboxylic acid]",IC50,[1],14 µM
same,solubility at 24 h,[2],200 µM
same,melting point,,274 to 276 °C
"O=C(O)c1ccc2c(c1)nc(NCC13CCC(CC1)O3)c1ncncc12 [Compound 4z, 5-(((7-oxabicyclo[2.2.1]heptan-1-yl)methyl)amino)pyrimido[4,5-c]quinoline-8-carboxylic acid]",IC50,[1],1.4 µM
same,fold decrease in CSNK2A potency,[1],10 fold
same,solubility at 24 h,[2],220 µM
same,melting point,,280 to 284 °C
"O=C(O)c1ccc2c(c1)nc(NCC1CCC1)c1ncncc12 [Compound 4r, 5-((cyclobutylmethyl)amino)pyrimido[4,5-c]quinoline-8-carboxylic acid]",IC50,[1],0.41 µM
same,fold increase in CSNK2A potency,[1],3 fold
same,solubility at 24 h,[2],220 µM
same,melting point,,265 to 268 °C
"CN1CCC(CNc2nc3cc(C(=O)O)ccc3c3cncnc23)CC1 [Compound 4ab, 5-(((1-methylpiperidin-4-yl)methyl)amino)pyrimido[4,5-c]quinoline-8-carboxylic acid]",IC50,[1],48.7 µM
same,solubility at 24 h,[2],220 µM
same,melting point,,205 to 208 °C
"CN(CC1CCCCC1)c1nc2cc(C(=O)O)ccc2c2cncnc12 [Compound 4ad, 5-((cyclohexylmethyl)(methyl)amino)pyrimido[4,5-c]quinoline-8-carboxylic acid]",IC50,[1],2.4 µM
same,Designation,[1],Inactive
same,fold less active on CSNK2A,[1]; compared to unmethylated parent amine 4t,17 fold
same,solubility at 24 h,[2],200 µM
same,melting point,,229 to 231 °C
"O=C(O)c1ccc2c(c1)nc(NCc1cccnc1)c1ncncc12 [Compound 4o, 5-((pyridin-3-ylmethyl)amino)pyrimido[4,5-c]quinoline-8-carboxylic acid]",IC50,[1],6 µM
same,solubility at 24 h,[2],200 µM
same,melting point,,270 to 274 °C
"O=C(O)c1ccc2c(c1)nc(N1CCc3ccccc3C1)c1ncncc12 [Compound 4ai, 5-(3,4-dihydroisoquinolin-2(1H)-yl)pyrimido[4,5-c]quinoline-8-carboxylic acid]",IC50,[1],1.2 µM
same,Designation,[1],Inactive
same,solubility at 24 h,[2],160 µM
same,melting point,,204 to 208 °C
"CC(C)CNc1nc2cc(C(=O)O)ccc2c2cncnc12 [Compound 4q, 5-(isobutylamino)pyrimido[4,5-c]quinoline-8-carboxylic acid]",IC50,[1],1.2 µM
same,solubility at 24 h,[2],170 µM
same,melting point,,270 to 273 °C
"Cc1ccc(CNc2nc3cc(C(=O)O)ccc3c3cncnc23)cc1 [Compound 4h, 5-((4-methylbenzyl)amino)pyrimido[4,5-c]quinoline-8-carboxylic acid]",IC50,[1],0.34 µM
same,solubility at 24 h,[2],170 µM
same,melting point,,201 to 204 °C
"N#Cc1ccc(CNc2nc3cc(C(=O)O)ccc3c3cncnc23)cc1 [Compound 4k, 5-((4-cyanobenzyl)amino)pyrimido[4,5-c]quinoline-8-carboxylic acid]",IC50,[1],0.53 µM
same,solubility at 24 h,[2],160 µM
same,melting point,,270 to 275 °C
"COc1cccc(CNc2nc3cc(C(=O)O)ccc3c3cncnc23)c1 [Compound 4e, 5-((3-methoxybenzyl)amino)pyrimido[4,5-c]quinoline-8-carboxylic acid]",IC50,[1],0.6 µM
same,solubility at 24 h,[2],170 µM
same,melting point,,210 to 214 °C
"O=C(O)c1ccc2c(c1)nc(NCC1CCCC1)c1ncncc12 [Compound 4s, 5-((cyclopentylmethyl)amino)pyrimido[4,5-c]quinoline-8-carboxylic acid]",IC50,[1],0.32 µM
same,fold increase in CSNK2A potency,[1],3 fold
same,solubility at 24 h,[2],210 µM
same,melting point,,261 to 264 °C
"O=C(O)c1ccc2c(c1)nc(NCc1ccc(-c3ccc(Cl)cc3)cc1)c1ncncc12 [Compound 4l, 5-(((4′-chloro-[1,1′-biphenyl]-4-yl)methyl)amino)pyrimido[4,5-c]quinoline-8-carboxylic acid]",IC50,[1],1.9 µM
same,solubility at 24 h,[2],< 1 µM
same,melting point,,246 to 248 °C
"O=C(O)c1ccc2c(c1)nc(NCc1ccc(C(F)F)cc1)c1ncncc12 [Compound 4i, 5-((4-(difluoromethyl)benzyl)amino)pyrimido[4,5-c]quinoline-8-carboxylic acid]",IC50,[1],0.47 µM
same,solubility at 24 h,[2],150 µM
same,melting point,,250 to 255 °C
"O=C(O)c1ccc2c(c1)nc(NCc1ccccc1Cl)c1ncncc12 [Compound 4a, 5-((2-chlorobenzyl)amino)pyrimido[4,5-c]quinoline-8-carboxylic acid]",IC50,[1],0.29 µM
same,solubility at 24 h,[2],140 µM
same,melting point,,193 to 198 °C
"O=C(O)c1ccc2c(c1)nc(N[C@@H]1CCc3ccccc31)c1ncncc12 [Compound 4ah, (R)-5-((2,3-dihydro-1H-inden-1-yl)amino)pyrimido[4,5-c]quinoline-8-carboxylic acid]",IC50,[1],> 10 µM
same,melting point,,260 to 262 °C
"COc1ccc(CNc2nc3cc(C(=O)O)ccc3c3cncnc23)cc1 [Compound 4f, 5-((4-methoxybenzyl)amino)pyrimido[4,5-c]quinoline-8-carboxylic acid]",IC50,[1],0.28 µM
same,solubility at 24 h,[2],160 µM
same,melting point,,246 to 247 °C
